Assay results published in patent US7951816B2, “Compound containing basic group and use thereof” (Ono Pharmaceutical Co., Ltd., priority 2004, dated 2011).

Columns and labels:
[1] = molecular target: T1, CXCR4 (Homo sapiens, UniProt P61073); assay: Study for inhibition of binding human SDF-1 to CEM cells (125I-SDF-1); conditions: 125I-SDF-1 binding to CEM cells
T1 construct: a human T cell strain in which CXCR4 is known to be expressed; endogenous in cells; host or cells: CEM cells (human T cell line), whole cells
Text: Specifically, as a system of screening a compound that inhibits the binding between SDF-1 and CXCR4, for example a system of measuring the binding between iodine-labeled SDF-1 and a human T cell strain in which CXCR4 is known to be expressed is operable. The identical idea is possible since macrophage (R5) HIV and RANTES, MIP-1α, and MIP-1β all bind to CCR5.
Study for Inhibition of Binding Human SDF-1 to CEM Cells
To human T cell strain CEM cells in a binding buffer (containing HEPES and BSA), the test compound and ^125I-SDF-1 (NEN) were added and the mixture was incubated at 4° C. for 60 minutes. The reacted CEM cells were rapidly filtrated with a GF/B membrane filter plate (Packard) to adsorb. The plate was washed with PBS three times and then dried. Microscint+20 (Packard) was added thereto. An amount of the radioactivity bound to the CEM cells was measured using Top Count (Packard) and inhibition (%) of the test compound was calculated according to the following equation: Inhibition={(Et−Ea)/(Et−Ec)}×100
Et: amount of radioactivity when the test compound is not added,
Ec: amount of radioactivity when non-radioactive SDF-1 (Pepro Tech) is added in an amount of 1000 times as much as ^125I-SDF-1 as a test compound, and
Ea: amount of radioactivity when the test compound is added.

[2] = Influence on blood pressure and heart rate in urethane-anesthetized rat, intravenous cumulative dosing; type: in vivo
Text: Measuring of Influence of a Compound of the Present Invention on Blood Pressure and Heart Rate
A rat was anesthetized with urethane (1.2 g/kg subcutaneous administration). After neck midline dissection, a catheter for measuring blood pressure was inserted into a right common carotid artery. Then, after dissecting inguinal region, a catheter for chemical injection was inserted into a femoral vein and fixed. A catheter for measurement of blood pressure was connected to a pressure transducer and then the pressure waveform was recorded on a thermal writing pen recorder through an amplifier for strain compression (AP-641G (manufactured by NIHON KOHDEN CORPORATION)). In this case, regarding a heart rate, a value through an cardiotachometer (AT-601G (manufactured by NIHON KOHDEN CORPORATION)) using the pressure waveform obtained from the amplifier for strain compression as a trigger was recorded on a thermal writing pen recorder. The test compound was dissolved in a 10% solubilizing agent/physiological saline solution (volume ratio of polyoxyethylene hydroxystearate:propylene glycol:physiological saline=7:3:190) so as to adjust the concentration to 0.1, 0.3, 1, 3 or 10 mg/mL to prepare solutions. Each solution was intravenous administered at 1 mL/Kg through the […] over about 10 seconds. Accumulative administration of stepwise increasing of a dosage was carried out to an individual.

T1 sequence (P61073 whole entry): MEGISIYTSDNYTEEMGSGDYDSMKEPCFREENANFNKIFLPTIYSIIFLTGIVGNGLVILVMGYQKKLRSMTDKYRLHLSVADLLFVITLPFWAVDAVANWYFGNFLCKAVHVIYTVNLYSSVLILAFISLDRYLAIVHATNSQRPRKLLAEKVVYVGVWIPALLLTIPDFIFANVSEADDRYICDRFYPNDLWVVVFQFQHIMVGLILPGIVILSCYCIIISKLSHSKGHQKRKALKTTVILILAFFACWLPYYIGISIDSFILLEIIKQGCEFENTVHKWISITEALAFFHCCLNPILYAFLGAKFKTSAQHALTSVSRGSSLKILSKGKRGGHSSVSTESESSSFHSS

Row | IC50 [1] | Compound | effect of decreasing blood pressure ([2]; 3 mg/kg or less) | rate of increase in the heart rate ([2]; 10 mg/kg) | influence on the heart rate ([2]; low dosage)
1 | 27 nM | CCCN(CCC)CCCCNCc1ccc(C(=O)N(Cc2ncc[nH]2)Cc2ncc[nH]2)cc1 [Compound 10, 4-({[4-(dipropylamino)butyl]amino}methyl)-N,N-bis(1H-imidazol-2-ylmethyl)benzamide] | – | – | –
2 | – | CCCN(CCC)CCCCNCc1ccc(CN(Cc2ncc[nH]2)C(=O)c2ncc[nH]2)cc1 [Compound 19, N-[4-({[4-(dipropylamino)butyl]amino}methyl)benzyl]-N-(1H-imidazol-2-ylmethyl)-1H-imidazole-2-carboxamide] | not recognized | 2% | no influence on the heart rate
